Measurements reported in patent publication US20230250066A1, “HERBICIDAL CINNOLINE DERIVATIVES” (SYNGENTA CROP PROTECTION AG, priority 2020, published 2023).

How the values were obtained:
Assay type in all cases: in vivo
[1] = tested on: Echinochloa crus-galli (ECHCG); assay: Pre-emergence herbicidal test; conditions: 1000 g/ha, evaluated after 13 days
[2] = tested on: Ipomoea hederacea (IPOHE); assay: Pre-emergence herbicidal test; conditions: 1000 g/ha, evaluated after 13 days
Setaria faberi (SETFA) [3] = assay: Pre-emergence herbicidal test; conditions: 1000 g/ha, evaluated after 13 days
[4] = tested on: Abutilon theophrasti (ABUTH); assay: Pre-emergence herbicidal test; conditions: 1000 g/ha, evaluated after 13 days
Zea mays (ZEAMX) [5] = assay: Pre-emergence herbicidal test; conditions: 1000 g/ha, evaluated after 13 days
[6] = tested on: Echinochloa crus-galli (ECHCG); assay: Post-emergence herbicidal test; conditions: 1000 g/ha unless otherwise stated, evaluated after 13 days
Procedure: (§1) Seeds of a variety of test species are sown in standard soil in pots (Amaranthus retoflexus (AMARE), Solanum nigrum (SOLNI), Setaria faberi (SETFA), Lolium perenne (LOLPE), Echinochloa crus-galli (ECHCG), Ipomoea hederacea (IPOHE), Abutilon theophrasti (ABUTH), Zea mays (ZEAMX)). After 8 days cultivation under controlled conditions in a glasshouse (at 24° C./16° C., day/night; 14 hours light; 65% humidity), the plants are sprayed with an aqueous spray solution derived from the formulation of the technical active ingredient in acetone/water (50:50) solution containing 0.5% Tween 20 (polyoxyethelyene sorbitan monolaurate, CAS RN 9005-64-5). Compounds are applied at 1000 g/ha unless otherwise stated. The test plants are then grown in a glasshouse under controlled conditions in a glasshouse (at 24° C./16° C., day/night; 14 hours light; 65% humidity) and watered twice daily. After 13 days the test is evaluated for the percentage damage caused to the plant. The biological activities are shown in the following table on a five-point scale (5=81-100%; 4=61-80%; 3=41-60%; 2=21-40%; 1=10-20%; 0=0%;−=not tested).

[7] = tested on: Amaranthus retoflexus (AMARE); assay: Post-emergence herbicidal test; conditions: 1000 g/ha unless otherwise stated, evaluated after 13 days
Procedure: as §1

Zea mays (ZEAMX) [8] = assay: Post-emergence herbicidal test; conditions: 1000 g/ha unless otherwise stated, evaluated after 13 days
Procedure: as §1

[9] = tested on: Abutilon theophrasti (ABUTH); assay: Post-emergence herbicidal test; conditions: 1000 g/ha unless otherwise stated, evaluated after 13 days
Procedure: as §1

[10] = tested on: Ipomoea hederacea (IPOHE); assay: Post-emergence herbicidal test; conditions: 1000 g/ha unless otherwise stated, evaluated after 13 days
Procedure: as §1

Setaria faberi (SETFA) [11] = assay: Post-emergence herbicidal test; conditions: 1000 g/ha unless otherwise stated, evaluated after 13 days
Procedure: as §1

[12] = tested on: Amaranthus retoflexus (AMARE); assay: Pre-emergence herbicidal test; conditions: 1000 g/ha, evaluated after 13 days

| SMILES | percentage damage caused to the plant, five-point scale, ECHCG [1] | percentage damage caused to the plant, five-point scale, IPOHE [2] | percentage damage caused to the plant, five-point scale, SETFA (Setaria faberi (SETFA) [3]) | percentage damage caused to the plant, five-point scale, ABUTH [4] | percentage damage caused to the plant, five-point scale, ZEAMX (Zea mays (ZEAMX) [5]) | percentage damage caused to the plant, ECHCG (five-point scale) [6] | percentage damage caused to the plant, AMARE (five-point scale) [7] | percentage damage caused to the plant, ZEAMX (five-point scale) (Zea mays (ZEAMX) [8]) | percentage damage caused to the plant, ABUTH (five-point scale) [9] | percentage damage caused to the plant, IPOHE (five-point scale) [10] | percentage damage caused to the plant, SETFA (five-point scale) (Setaria faberi (SETFA) [11]) | percentage damage caused to the plant, five-point scale, AMARE [12] |
| --- | --- | --- | --- | --- | --- | --- | --- | --- | --- | --- | --- | --- |
| Cc1ccc2c(c1S(C)(=O)=O)c(=O)c(C(=O)O)nn2-c1ccc(OC(F)(F)F)cc1 [Compound P6, 6-methyl-5-methylsulfonyl-4-oxo-1-[4-(trifluoromethoxy)phenyl]cinnoline-3-carboxylic acid] | 3 (3=41-60%) | 1 (1=10-20%) | 4 (4=61-80%) | 2 (2=21-40%) | 1 (1=10-20%) | 4 (4=61-80%) | 2 (2=21-40%) | 1 (1=10-20%) | 1 (1=10-20%) | 1 (1=10-20%) | 3 (3=41-60%) | 1 (1=10-20%) |
| Cc1cc(S(C)(=O)=O)c2c(=O)c(C(=O)O)nn(-c3ccc(OC(F)(F)F)cc3)c2c1 [Compound P7, 7-methyl-5-methylsulfonyl-4-oxo-1-[4-(trifluoromethoxy)phenyl]cinnoline-3-carboxylic acid] | 4 (4=61-80%) | 1 (1=10-20%) | 4 (4=61-80%) | 1 (1=10-20%) | 1 (1=10-20%) | 4 (4=61-80%) | 1 (1=10-20%) | 2 (2=21-40%) | 1 (1=10-20%) | 2 (2=21-40%) | 4 (4=61-80%) | 1 (1=10-20%) |
| CCOC(=O)c1nn(-c2ccc(OC(F)(F)F)cc2)c2ccc(C)c(S(C)(=O)=O)c2c1=O [Compound P8, ethyl 6-methyl-5-methylsulfonyl-4-oxo-1-[4-(trifluoromethoxy)phenyl]cinnoline-3-carboxylic acid] | 3 (3=41-60%) | 1 (1=10-20%) | 4 (4=61-80%) | 1 (1=10-20%) | 1 (1=10-20%) | 4 (4=61-80%) | 1 (1=10-20%) | 1 (1=10-20%) | 1 (1=10-20%) | 1 (1=10-20%) | 4 (4=61-80%) | 1 (1=10-20%) |
| CCOC(=O)c1nn(-c2ccc(OC(F)(F)F)cc2)c2cc(C)cc(S(C)(=O)=O)c2c1=O [Compound P9, ethyl 7-methyl-5-methylsulfonyl-4-oxo-1-[4-(trifluoromethoxy)phenyl]cinnoline-3-carboxylate] | 4 (4=61-80%) | 1 (1=10-20%) | 4 (4=61-80%) | 1 (1=10-20%) | 1 (1=10-20%) | 4 (4=61-80%) | 1 (1=10-20%) | 1 (1=10-20%) | 1 (1=10-20%) | 1 (1=10-20%) | 3 (3=41-60%) | 1 (1=10-20%) |
| CCOC(=O)c1nn(-c2ccc(OC(F)(F)F)cc2)c2ccc(Br)c(S(C)(=O)=O)c2c1=O [Compound P10, ethyl 6-bromo-5-methysulfonyl-4-oxo-1-[4-(trifluoromethoxy)phenyl]cinnoline-3-carboxylate] | 0 (0=0%) | 0 (0=0%) | 1 (1=10-20%) | 1 (1=10-20%) | 0 (0=0%) | 1 (1=10-20%) | 1 (1=10-20%) | 1 (1=10-20%) | 1 (1=10-20%) | 0 (0=0%) | 1 (1=10-20%) | 1 (1=10-20%) |
| CCOC(=O)c1nn(-c2ccc(OC(F)(F)F)cc2)c2cc(Br)cc(S(C)(=O)=O)c2c1=O [Compound P11, ethyl 7-bromo-5-methylsulfonyl-4-oxo-1-[4-(trifluoromethoxy)phenyl]cinnoline-3-carboxylate] | 0 (0=0%) | 0 (0=0%) | 0 (0=0%) | 0 (0=0%) | 0 (0=0%) | 0 (0=0%) | 0 (0=0%) | 1 (1=10-20%) | 1 (1=10-20%) | 0 (0=0%) | 1 (1=10-20%) | 0 (0=0%) |
| CS(=O)(=O)c1c(Br)ccc2c1c(=O)c(C(=O)O)nn2-c1ccc(OC(F)(F)F)cc1 [Compound P12, 6-bromo-5-methylsulfonyl-4-oxo-1-[4-(trifluoromethoxy)phenyl]cinnoline-3-carboxylic acid] | 1 (1=10-20%) | 0 (0=0%) | 4 (4=61-80%) | 1 (1=10-20%) | 0 (0=0%) | 3 (3=41-60%) | 1 (1=10-20%) | 1 (1=10-20%) | 1 (1=10-20%) | 0 (0=0%) | 3 (3=41-60%) | 0 (0=0%) |
| CS(=O)(=O)c1cc(Br)cc2c1c(=O)c(C(=O)O)nn2-c1ccc(OC(F)(F)F)cc1 [Compound P13, 7-bromo-5-methylsulfonyl-4-oxo-1-[4-(trifluoromethoxy)phenyl]cinnoline-3-carboxylic acid] | 0 (0=0%) | 0 (0=0%) | 0 (0=0%) | 1 (1=10-20%) | 0 (0=0%) | 1 (1=10-20%) | 1 (1=10-20%) | 1 (1=10-20%) | 0 (0=0%) | 0 (0=0%) | 1 (1=10-20%) | 0 (0=0%) |
| CCOC(=O)c1nn(-c2ccc(OC(F)(F)F)cc2)c2ccc(Br)c(SC)c2c1=O [Compound P53, ethyl 6-bromo-5-methylsulfanyl-4-oxo-1-[4-(trifluoromethoxy)phenyl]cinnoline-3-carboxylate] | 1 (1=10-20%) | 0 (0=0%) | 1 (1=10-20%) | 1 (1=10-20%) | – | 1 (1=10-20%) | 0 (0=0%) | 0 (0=0%) | 1 (1=10-20%) | 1 (1=10-20%) | 0 (0=0%) | 1 (1=10-20%) |
